# Data published in patent publication US20250327191A1, “CORROSSION INHIBITOR COMPOSITIONS” (Tata Consultancy Services Limited, priority 2024, published 2025).
# Experiment: Corrosion inhibition on steel coupons immersed in 1M HCl for 2 hrs
# Description: The corrosion inhibitor composition of the example—1 is tested for its corrosion inhibition effect on steel at two temperatures. The steel being the ferrous alloy has the following composition:
# The steel coupons are initially abraded with various emery papers of decreasing coarseness i.e. 80, 150, 220, 400 grits to obtain a fine finish surface. The fine finished coupons are cleaned with acetone and then wrapped in paper to avoid any further oxidation and stored in a safe and dry place until further use. The 400 grit finished coupons are immersed in 100 ml 1M HCl solution for 2 hrs at room temperature and at […], to find out the corrosion rate. Similarly, the fine finished coupons are also immersed in 100 ml 1M HCl along with the composition of the example—1 with an effective concentration of inhibitor 200, 500 and 1000 ppm for 2 hrs at room temperatures. […] As, it is also essential for the corrosion inhibitors to perform well in case of higher temperatures. Further, the composition of example—1 is tested at higher temperatures. The below Table-2 provides the information on test results. It is evident from the Table-2 that the inhibition efficiencies at 60° C. is relatively higher than that of room temperature. The average corrosion rates (CR) at room temperature and 60° C. in 1 M HCl without inhibitor for 2 hrs immersion are 1.1081 cm/y and 16.42325 cm/y respectively. The inhibition efficiency (IE) is calculated using the formula: […]
structure (smiles),measurement,setting,value
"Cc1ccc(C=O)s1 [5-Methyl-2-thiophenecarboxaldehyde, 5-methyl-2-thiophenecarboxaldehyde]",IE (%),"200 ppm, no KI intensifier, 27 °C",54.03%
same,IE (%),"500 ppm, no KI intensifier, 27 °C",63.58%
same,IE (%),"1000 ppm, 0.1 wt % KI, 27 °C",84.07%
same,IE (%),"1000 ppm, 0.25 wt % KI, 27 °C",90.43%
same,IE (%),"1000 ppm, 0.5 wt % KI, 27 °C",92.36%
same,IE (%),"1000 ppm, 0.5 wt % KI, 60 °C",95.06%
same,IE (%),"1000 ppm, no KI intensifier, 27 °C",72.65%
